Laboratory results: US5723484A, “Benzopyran compounds as 5-HT2C receptor antagonists” (Adir et Compagnie, priority 1994, dated 1998)

Legend:
5-HT2A receptors [1] = target: T1, 5-HT2A receptors (Rattus norvegicus, UniProt P14842); assay: In vitro affinity for the 5-HT2A receptors, rat frontal cortex/[3H]-ketanserin (1.0 nM); type: binding
T1 construct: rat frontal cortex; from tissue; host or cells: rat frontal cortex
Protocol: (§1) Measurement of the in vitro affinity for the 5-HT2C and 5-HT2A receptors
(§2) The procedures described for the studies of the binding to the 5-HT2A and 5-HT2C receptors are exactly those described by H. Canton et al. (Eur. J. Pharmacol., 191, 93, 1990) and M. J. Millan et al. (J. Pharmacol. Exp. Ther., 262, 451-463, 1992). For 5-HT2A : rat frontal cortex/[^3 H]-ketanserin (1.0 nM). For 5-HT2C : pig […] plexus/[^3 H]-mesulergine (1.0 nM). The 50% inhibitory doses (ID50) are determined by regression analysis and the pKi values are calculated as follows: [formula] [L]=concentration of the Kd-Kd=dissociation constant Results

5-HT2A receptors [2] = conditions: literature; cited from earlier work
5-HT2C receptors [3] = conditions: literature; cited from earlier work
5-HT2C receptors [4] = target: T2, 5-HT2C receptors (Sus scrofa, UniProt K7GSR7); assay: biochemical; type: binding, pig
T2 construct: pig cerebral plexus; from tissue; host or cells: pig cerebral plexus (own knowledge: choroid plexus)
T2 sequence (K7GSR7 1-457): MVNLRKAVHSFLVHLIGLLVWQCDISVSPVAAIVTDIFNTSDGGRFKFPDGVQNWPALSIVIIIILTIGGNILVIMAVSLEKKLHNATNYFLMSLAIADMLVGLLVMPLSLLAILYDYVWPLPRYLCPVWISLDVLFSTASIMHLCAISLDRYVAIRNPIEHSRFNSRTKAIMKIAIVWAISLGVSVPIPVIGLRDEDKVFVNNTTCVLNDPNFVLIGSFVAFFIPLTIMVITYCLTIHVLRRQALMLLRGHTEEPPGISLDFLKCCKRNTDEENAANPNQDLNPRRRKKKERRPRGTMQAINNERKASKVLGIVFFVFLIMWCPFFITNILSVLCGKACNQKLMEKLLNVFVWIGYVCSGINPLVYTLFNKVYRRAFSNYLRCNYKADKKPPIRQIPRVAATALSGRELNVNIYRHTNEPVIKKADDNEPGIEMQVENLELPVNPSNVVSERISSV
Protocol: as §1, §2

patients = conditions: clinical results in patients, literature; cited from earlier work

T1 sequence (P14842 whole entry): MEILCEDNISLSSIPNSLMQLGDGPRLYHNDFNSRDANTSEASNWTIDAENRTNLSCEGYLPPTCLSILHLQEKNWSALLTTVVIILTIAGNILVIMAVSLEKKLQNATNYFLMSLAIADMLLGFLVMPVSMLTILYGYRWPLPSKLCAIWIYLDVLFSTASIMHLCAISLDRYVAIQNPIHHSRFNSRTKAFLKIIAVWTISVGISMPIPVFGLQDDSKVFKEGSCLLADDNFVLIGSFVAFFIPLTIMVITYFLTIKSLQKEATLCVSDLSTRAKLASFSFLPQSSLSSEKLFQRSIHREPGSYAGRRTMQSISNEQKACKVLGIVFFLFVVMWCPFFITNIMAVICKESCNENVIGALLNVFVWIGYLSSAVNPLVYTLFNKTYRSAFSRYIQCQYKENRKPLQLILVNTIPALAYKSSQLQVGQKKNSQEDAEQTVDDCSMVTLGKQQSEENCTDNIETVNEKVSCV

SMILES | affinity for the 5-HT2A sites/receptors (5-HT2A receptors [1]) | action at 5-HT2A receptors (5-HT2A receptors [2]) | action at 5-HT2C receptors (5-HT2C receptors [3]) | affinity for the 5-HT2C receptors (5-HT2C receptors [4]) | Ki (5-HT2C receptors [4]; 5-HT2C Ki (nM), pig cerebral plexus, [3H]-mesulergine 1.0 nM, average of two to four determinations) [nM] | Ki (5-HT2C receptors [4]; affinity for the 5-HT2C receptors, of the order of) [nM] | Ki (5-HT2A receptors [1]; rat frontal cortex, [3H]-ketanserin 1.0 nM, average of two to four determinations) [nM] | anxiogenic properties and exacerbation of psychiatric states (patients)
COc1cccc([C@H](O)C2CCN(CCc3ccc(F)cc3)CC2)c1OC [MDL 100,907, reference compound] | very strong affinity | selective 5-HT2A antagonist |  |  |  |  |  | 
Cn1ccc2cc(NC(=O)Nc3cccnc3)ccc21 [SB 200,646, reference compound] | weak affinity |  | selective 5-HT2C antagonist | modest affinity | 204 | ~200 | 1320 | 
Clc1cccc(N2CCNCC2)c1 [mCPP] |  | 5-HT2A antagonist | 5-HT2C agonist |  |  |  |  | pronounced anxiogenic properties and which exacerbates depressive, aggressive and psychotic states in patients
